Values after ≈ are worked out from the molar mass of the structure shown. “Also recorded” adds a separate entry of the source. Read-outs that look alike come from different tables or passages of the source.
Assays:
[1] = tested on: E. coli (ATCC 25922, ATCC 35218, MMX 1312); assay: Spontaneous mutation frequency assay; type: cell-based, Escherichia coli
Procedure: Initial values of the MIC were determined by agar dilution in accordance with guidelines from the Clinical and Laboratory Standards Institute (CLSI; (1) “Methods for Dilution Antimicrobial Susceptibility Tests for Bacteria That Grow Aerobically; Approved Standard; 11th ed.,” CLSI standard M07, 2018; (2) “Methods for Antimicrobial Susceptibility Testing of Anaerobic Bacteria; Approved Standard—Eighth Edition,” CLSI document M11-A8, 2012.).
The agar plates were prepared by mixing a ratio of 1.0 mL of concentrated drug to 49.0 mL of the appropriate molten (47° C.) agar; the drug-supplemented agar was mixed, poured into 15-by-150 mm petri dishes and allowed to solidify and dry at room temperature prior to inoculation. […] Each plate was allowed to cool at room temperature for at least 1 hr.
The isolates were streaked onto the appropriate agar medium and incubated for 20 hr (aerobes) or 48 hr (Bacteroides under anaerobic conditions). Using a sterile swab, several well-isolated colonies were removed and resuspended in sterile saline at a heavy cell density. Each plate was inoculated with 0.5 mL of the cell suspension (each test concentration was inoculated in duplicate). The target inoculum for each spontaneous mutation plate was 10^9-10 CFU. In addition, a portion of the inoculum from each isolate was enumerated by making dilutions, spreading on agar and counting colonies.
Once the inoculum was absorbed into the agar, the plates were incubated at 35° C. Aerobes were examined at 24 and 48 hr, and resulting colonies were counted. Bacteroides were incubated anaerobically for 48-72 hr in the anaerobe chamber and colonies were counted.
Colony counts from plates used to enumerate the initial inoculum density and from the resulting spontaneous mutation frequency test plates were determined. The inoculum size was calculated as CFU inoculated per plate. The spontaneous mutation frequency was calculated using the counts from duplicate spontaneous mutation assay test plates as follows:
If there were no colonies on the antibiotic selection plates, the spontaneous mutation frequency was reported as less than the frequency observed with one colony to indicate that the spontaneous mutation frequency was less than the limit of detection (one CFU). […] The mutation prevention concentration (MPC) was reported as the lowest concentration for which no mutants were selected.

S. pyogenes ATCC 49399 = assay: Time-kill assay; type: cell-based, Streptococcus pyogenes; conditions: 2×, 4×, 8× MIC; 2, 6, 24 hr
Escherichia coli = assay: Broth microdilution MIC, 50 clinical isolates (incl. ESBL, one NDM-1); type: cell-based
Procedure: Minimal inhibitory concentration (MIC) values were determined by broth microdilution or agar dilution in accordance with guidelines from the Clinical and Laboratory Standards Institute (CLSI; (1) “Methods for Dilution Antimicrobial Susceptibility Tests for Bacteria That Grow Aerobically; Approved Standard; 11th ed.” CLSI standard M07-A11, 2018; (2) “Performance Standards for Antimicrobial Susceptibility Testing; Twenty-Eighth Informational Supplement,” CLSI document M100-S28, 2018; and (3) “Methods for Antimicrobial Susceptibility Testing of Anaerobic Bacteria; Approved Standard—Eighth Edition,” CLSI document M11-A8, 2012).
Tested aerobically by broth microdilution: • Escherichia coli, n=50 • Klebsiella spp., n=50 • Pseudomonas aeruginosa, n=50 • Streptococcus spp., n=50 • Staphylococcus aureus, n=50 • Enterococcus faecalis, n=50 • Enterobacter aerogenes, n=50 • Proteus mirabilis, n=50
Broth microdilution testing of aerobic bacteria was conducted in cation-adjusted Mueller Hinton broth (MHBII). For testing streptococci, lysed horse blood (LHB) was added to MHBII broth at a final concentration of 3%. Where LHB was used, it was added after filtering.
Broth microdilution susceptibility testing in 96-well microplates was conducted in accordance with CLSI methods (1) and (2). Automated liquid handlers were used to conduct serial dilutions and liquid transfers, including the Multidrop 384 (Labsystems, Helsinki, Finland), Biomek 2000, and the Biomek FX (Beckman Coulter, Fullerton, Calif.). All wells in columns 2 through 12 of a standard 96-well microdilution plate (Costar 3795) were filled with 150 μL of the appropriate diluent. Then, 300 μL of the test agents were added to the wells of column 1 of the plates at 100× the highest final concentration to be tested. Serial two-fold dilutions were made across the rows through column 11 using the Biomek 2000. The wells of column 12 contained no drug and served as the growth control wells. This plate served as the “mother plate” from which MIC assay plates or “daughter plates” were made.
The daughter plates were loaded with 190 μL per well of the appropriate medium using the Multidrop 384. The daughter plates were created using the Biomek FX which transferred 2 μL of drug solution from each well of a mother plate to each corresponding well of the daughter plate in a single step. A standardized inoculum of each test organism was prepared per CLSI methods (1) to equal a 0.5 McFarland standard, followed by a dilution of 1:20 for aerobes and 1:10 for anaerobes. The plates were then inoculated with 10 μL of the diluted inoculum using the Biomek 2000 from low to high drug concentration, resulting in a final concentration of approximately 5×10^5 CFU/mL per well. An un-inoculated plate was incubated in parallel for each medium for the purpose of assessing solubility of the drug in the test media.
Inoculated plates were stacked 3 or 4 high, covered with a sterile lid on the top plate, placed into boxes with CO2 planchets (streptococci) or plastic bags (all other isolates). Plates were incubated at 35° C. for 16-24 hr in ambient air for aerobes or for 42-48 hr in the anaerobic environment of the Bactron II anaerobe chamber (Sheldon Manufacturing Co.; Cornelius, Oreg.). Following incubation, the microplates were removed from the incubator and viewed from the bottom using a plate viewer. The MIC values were read and recorded as the lowest concentration of drug that inhibited visible growth of the organism as per CLSI methods (1) and (2).

[2] = Escherichia coli, read-out: MIC50
[3] = Escherichia coli, read-out: MIC90

Molecule	% R (Escherichia coli)	% S (Escherichia coli)	Mode (Escherichia coli)	Cumulative percentage of isolates inhibited at MIC (Escherichia coli; 0.015 μg/mL)	Number of test isolates at MIC (Escherichia coli; 0.015 μg/mL)	Cumulative percentage of isolates inhibited at MIC (Escherichia coli; 0.03 μg/mL)	Number of test isolates at MIC (Escherichia coli; 0.03 μg/mL)	Cumulative percentage of isolates inhibited at MIC (Escherichia coli; 0.06 μg/mL)	Number of test isolates at MIC (Escherichia coli; 0.06 μg/mL)	MIC50 (Escherichia coli; [2])	MIC90 (Escherichia coli; [3])	Number of test isolates at MIC (Escherichia coli; […])	Cumulative percentage of isolates inhibited at MIC (Escherichia coli; 0.5 μg/mL)	Number of test isolates at MIC (Escherichia coli; 0.5 μg/mL)	Cumulative percentage of isolates inhibited at MIC (Escherichia coli; 2 μg/mL)	Number of test isolates at MIC (Escherichia coli; 2 μg/mL)	Cumulative percentage of isolates inhibited at MIC (Escherichia coli; 4 μg/mL)	Number of test isolates at MIC (Escherichia coli; 4 μg/mL)	Cumulative percentage of isolates inhibited at MIC (Escherichia coli; 8 μg/mL)	Number of test isolates at MIC (Escherichia coli; 8 μg/mL)	also measured
C[C@@H](O)[C@H]1C(=O)N2C(C(=O)O)=C(S[C@@H]3CN[C@H](C(=O)N(C)C)C3)[C@H](C)[C@H]12 [meropenem]	2%	Ninety-eight	0.015 µg/mL	78.0%	21	90.0%	6	92.0%	1	0.015 µg/mL (≈ 0.0391 µM)	0.03 µg/mL (≈ 0.0782 µM)	3	–	–	–	–	–	–	–	–	colonies on selection plates ([1]; E. coli MMX 1312): too numerous to count; mutation rate ([1]; E. coli MMX 1312): indeterminate; colonies on selection plates ([1]; E. coli MMX 1312, listed as Meropenem): only E. coli MMX 1312 demonstrated growth; Spontaneous Mutation Frequency ([1]; selection at 4× and 8× MIC, meropenem/ceftriaxone: isolates other than MMX 1312): ≤ 7.41×10^−9; time-kill kinetics outcome (bactericidal = ≥3 log reduction in CFU per mL) (S. pyogenes ATCC 49399): bactericidal effect at 4× and 8×MIC at 24 hr; relative activity among drugs tested (Escherichia coli): most active drug tested; also recorded: most active agent; Cumulative percentage of isolates inhibited at MIC (Escherichia coli; >8 μg/mL): 100.0%; Number of test isolates at MIC (Escherichia coli; >8 μg/mL): 1; Cumulative percentage of isolates inhibited at MIC (Escherichia coli; […]): 98.0%; % R (Escherichia coli; listed as MEM): 2%; % S (Escherichia coli; listed as MEM): 98%; Cumulative percentage of isolates inhibited at MIC (Escherichia coli; ≤0.008 μg/mL): 36.0%; Number of test isolates at MIC (Escherichia coli; ≤0.008 μg/mL): 18
piperacillin/tazobactam [piperacillin-tazobactam]	8%	80%	2 µg/mL	–	–	–	–	–	–	–	–	–	6.0%	2	64.0%	19	74.0%	5	78.0%	2	% I (Escherichia coli): 12% ^; MIC50 (Escherichia coli): 2 µg/mL; MIC90 (Escherichia coli): 64 µg/mL; Cumulative percentage of isolates inhibited at MIC (Escherichia coli; 1 μg/mL): 26.0%; Number of test isolates at MIC (Escherichia coli; 1 μg/mL): 10; Cumulative percentage of isolates inhibited at MIC (Escherichia coli; 16 μg/mL): 80.0%; Number of test isolates at MIC (Escherichia coli; 16 μg/mL): 1; Cumulative percentage of isolates inhibited at MIC (Escherichia coli; 32 μg/mL): 86.0%; Number of test isolates at MIC (Escherichia coli; 32 μg/mL): 3; Cumulative percentage of isolates inhibited at MIC (Escherichia coli; 64 μg/mL): 92.0%; Number of test isolates at MIC (Escherichia coli; 64 μg/mL): 3; Cumulative percentage of isolates inhibited at MIC (Escherichia coli; 128 μg/mL): 96.0%; Number of test isolates at MIC (Escherichia coli; 128 μg/mL): 2; Cumulative percentage of isolates inhibited at MIC (Escherichia coli; >128 μg/mL): 100.0%; Number of test isolates at MIC (Escherichia coli; >128 μg/mL): 2; Cumulative percentage of isolates inhibited at MIC (Escherichia coli; ≤[…]): 2.0%; Number of test isolates at MIC (Escherichia coli; ≤[…]): 1
COc1c(N2C[C@@H]3CCCN[C@@H]3C2)c(F)cc2c(=O)c(C(=O)O)cn(C3CC3)c12 [moxifloxacin]	–	–	0.03 µg/mL	4.0%	2	34.0%	15	52.0%	9	0.06 µg/mL (≈ 0.149 µM)	32 µg/mL (≈ 79.7 µM)	1	60.0%	2	64.0%	2	66.0%	1	70.0%	2	MIC range (Escherichia coli): 0.015 to 128 µg/mL; Cumulative percentage of isolates inhibited at MIC (Escherichia coli; 16 μg/mL): 88.0%; Number of test isolates at MIC (Escherichia coli; 16 μg/mL): 9; Cumulative percentage of isolates inhibited at MIC (Escherichia coli; 32 μg/mL): 98.0%; Number of test isolates at MIC (Escherichia coli; 32 μg/mL): 5; Cumulative percentage of isolates inhibited at MIC (Escherichia coli; 128 μg/mL): 100.0%; Number of test isolates at MIC (Escherichia coli; 128 μg/mL): 1

— patent US20210386367A1, “DEVICES AND SYSTEMS FOR GASTROINTESTINAL MICROBIOME DETECTION AND MANIPULATION” (Progenity, Inc., priority 2018, published 2021)
